Like-named read-outs stand apart in the source and are kept apart here.
Legend:
[1] = test system: Puccinia recondita; assay: Example M: in vivo preventive test on Puccinia recondita (brown rust on wheat); conditions: 500 ppm of active ingredient, grading 12 days after contamination
Procedure: In Vivo Preventive Test on Puccinia recondita (Brown Rust on Wheat) […] Wheat plants (“Scipion” variety), sown in starter cups on a 50/50 peat soil pozzolana substrate and grown at 22° C., are treated at the 1 leaf stage (10 cm height) by spraying with the active ingredient prepared as described above. Plants, used as controls, are treated with the mixture of acetone/tween/DMSO/water not containing the active material. After 24 hours, the plants are contaminated by spraying the leaves with an aqueous suspension of Puccinia recondite spores (100 000 spores per mL). The spores are collected from an infected plant and are suspended in water containing 2.5 mL/L of Tween 80 at 10%. […] Grading (% of efficacy) is carried out 12 days after the contamination, in comparison with the control plants.

[2] = test system: Uromyces appendiculatus; assay: Example Q: in vivo preventive test on Uromyces appendiculatus (bean rust); conditions: Uromyces appendiculatus on bean plants, 500 ppm of active ingredient, grading 11 days after contamination
Procedure: In Vivo Preventive Test on Uromyces appendiculatus (Bean Rust) […] Bean plants (“Saxa” variety), sown in starter cups on a 50/50 peat soil pozzolana substrate and grown at 24° C., are treated at the 2 leaf stage (9 cm height) by spraying with the active ingredient prepared as described above. Plants, used as controls, are treated with the mixture of acetone/tween/DMSO/water not containing the active material. After 24 hours, the plants are contaminated by spraying the leaves with an aqueous suspension of Uromyces appendiculatus spores (150 000 spores per mL). The spores are collected from infected plants and are suspended in water containing 2.5 mL/L of Tween 80 at 10%. […] Grading (% of efficacy) is carried out 11 days after the contamination, in comparison with the control plants.

[3] = test system: Alternaria solani; assay: Example C: in vivo preventive test on Alternaria solani (tomato); conditions: 500 ppm of active ingredient, evaluated 7 days after inoculation
Procedure: (§1) In Vivo Preventive Test on Alternaria solani (Tomato) Solvent: 49 parts by weight of N,N-dimethylformamide Emulsifier: 1 part by weight of alkylarylpolyglycolether To produce a suitable preparation of active compound, 1 part by weight of active compound is mixed with the stated amounts of solvent and emulsifier, and the concentrate is diluted with water to the desired concentration. To test for preventive activity, young plants are sprayed with the preparation of active compound at the stated rate of application. One day after this treatment, the plants are inoculated with an aqueous spore suspension of Alternaria solani. The plants remain for one day in an incubation cabinet at approximately 22° C. and a relative atmospheric humidity of 100%. Then the plants are placed in an incubation cabinet at approximately 20° C. and a relative atmospheric humidity of 96%.

[4] = test system: Pyrenophora teres; assay: Example E: in vivo preventive test on Pyrenophora teres (barley), DMF/emulsifier preparation; conditions: 500 ppm of active ingredient, evaluated 7-9 days after inoculation
Procedure: as §1, with “Pyrenophora teres (Barley)” for “Alternaria solani (Tomato)”, “alkylaryl polyglycol ether” for “alkylarylpolyglycolether”, “Pyrenophora teres.” for “Alternaria solani.”, “48 hours” for “one day”, “at” for “at approximately”, “100%.” for “100%. Then the plants are placed in an incubation cabinet at approximately 20° C. and a relative atmospheric humidity of 96%.”

[5] = test system: Septoria tritici; assay: Example I: in vivo preventive test on Septoria tritici (wheat), acetone/tween/DMSO preparation; conditions: 500 ppm of active ingredient, grading 24 days after contamination
Procedure: In Vivo Preventive Test on Septoria tritici (Wheat) […] Wheat plants (“Scipion” variety), sown in starter cups on a 50/50 peat soil pozzolana substrate and grown at 22° C., are treated at the 1 leaf stage (10 cm height) by spraying with the active ingredient prepared as described above. Plants, used as controls, are treated with the mixture of acetone/tween/DMSO/water not containing the active material. After 24 hours, the plants are contaminated by spraying the leaves with an aqueous suspension of cryopreserved Septoria tritici spores (500 000 spores per mL). The contaminated wheat plants are incubated for 72 hours at 18° C. and at 100% relative humidity, and then for 21 days at 90% relative humidity. Grading (% of efficacy) is carried out 24 days after the contamination, in comparison with the control plants.

[6] = test system: Pyrenophora teres; assay: Example F: in vivo preventive test on Pyrenophora teres (barley), acetone/tween/DMSO preparation; conditions: grading 14 days after contamination
Procedure: In Vivo Preventive Test on Pyrenophora teres (Barley) […] Barley plants (“Plaisant” variety), sown in starter cups on a 50/50 peat soil pozzolana substrate and grown at 22° C., are treated at the 1 leaf stage (10 cm height) by spraying with the active ingredient prepared as described above. Plants, used as controls, are treated with the mixture of acetone/tween/DMSO/water not containing the active material. After 24 hours, the plants are contaminated by spraying the leaves with an aqueous suspension of Pyrenophora teres spores (12 000 spores per mL). The spores are collected from a 12-day-old culture. […] Grading (% of efficacy) is carried out 14 days after the contamination, in comparison with the control plants.

[7] = test system: Sphaerotheca fuliginea; assay: Example B: in vivo preventive test on Sphaerotheca fuliginea (powdery mildew on cucurbits), gherkin plants; conditions: 500 ppm of active ingredient, grading 12 days after contamination
Procedure: In Vivo Preventive Test on Sphaerotheca fuliginea (Powdery Mildew on Cucurbits) […] Gherkin plants (“Vert petit de Paris” variety), sown in starter cups on a 50/50 peat soil-pozzolana substrate and grown at 24° C. are treated at the Z11 cotyledon stage by spraying with the active ingredient prepared as described above. Plants, used as controls, are treated with the mixture of acetone/tween/DMSO/water not containing the active material. After 24 hours, the plants are contaminated by spraying the cotyledons with an aqueous suspension of Sphaerotheca fuliginea spores (100 000 spores per mL). The spores are collected from infected plants.

[8] = test system: Alternaria brassicae; assay: Example D: in vivo preventive test on Alternaria brassicae (leaf spot on radish); conditions: 100 ppm of active ingredient, grading 6 days after contamination
Procedure: In Vivo Preventive Test on Alternaria brassicae (Leaf Spot on Radish) […] Radish plants (“Pernod Clair” variety), sown in starter cups on a 50/50 peat soil pozzolana substrate and grown at 17° C., are treated at the cotyledon stage by spraying with the active ingredient prepared as described above. Plants, used as controls, are treated with the mixture of acetone/tween/DMSO/water not containing the active material. After 24 hours, the plants are contaminated by spraying the cotyledons with an aqueous suspension of Alternaria brassicae spores (50 000 spores per mL). The spores are collected from a 15-day-old culture. The contaminated radish plants are incubated at 20° C. and at 100% relative humidity. Grading (% of efficacy) is carried out 6 days after the contamination, in comparison with the control plants.

[9] = log P by HPLC on reversed-phase column (C 18), EEC Directive 79831 Annex V.A8; format: physicochemical
Procedure: In table 1, the log P values were determined in accordance with EEC Directive 79831 Annex V.A8 by HPLC (High Performance Liquid Chromatography) on a reversed-phase column (C 18), using the method described below: Temperature: 40° C.; Mobile phases: 0.1% aqueous formic acid and acetonitrile; linear gradient from 10% acetonitrile to 90% acetonitrile. Calibration was carried out using unbranched alkan-2-ones (comprising 3 to 16 carbon atoms) with known log P values (determination of the log P values by the retention times using linear interpolation between two successive alkanones). lambda-max-values were determined using UV-spectra from 200 nm to 400 nm and the peak values of the chromatographic signals.

[10] = test system: Botrytis cinerea; assay: Example P: in vivo preventive test on Botrytis cinerea (grey mould), gherkin plants; conditions: 500 ppm of active ingredient, grading 4 to 5 days after contamination
Procedure: In Vivo Preventive Test on Botrytis cinerea (Grey Mould) […] Gherkin plants (“Vert petit de Paris” variety), sown in starter cups on a 50/50 peat soil pozzolana substrate and grown at 24° C. are treated at the Z11 cotyledon stage by spraying with the active ingredient prepared as described above. Plants, used as controls, are treated with the mixture of acetone/tween/DMSO/water not containing the active material. After 24 hours, the plants are contaminated by spraying the cotyledons with an aqueous suspension of cryopreserved Botrytis cinerea spores (50 000 spores per mL). The spores are suspended in a nutrient solution composed of 10 g/L of PDB, 50 g/L of D-Fructose, 2 g/L of NH4NO3 and 1 g/L of KH2PO4. The contaminated gherkin plants are incubated at 17° C. and at 90% relative humidity. Grading (% of efficacy) is carried out 4 to 5 days after the contamination, in comparison with the control plants.

[11] = 500 ppm of active ingredient, barley
[12] = Pyrenophora teres on barley, 100 ppm of active ingredient
[13] = HPLC reversed-phase C 18, 40° C., 0.1% aqueous formic acid and acetonitrile gradient, several values = mixture of two or more isomers

Row | SMILES | Efficacy [1] | Efficacy [2] | Efficacy [5] | Efficacy [6, 11] | logP [9, 13] | logP [9] | Efficacy [10] | other results
1 | Cn1nc(C(F)F)c(C(=O)N(C2CC2)C2CCC3CCCC3C2)c1Cl (mixture of isomers) [Example 21] | 94% | 98% |  |  |  |  |  | Efficacy [3]: 90%; Efficacy [4]: 100%
2 | Cn1nc(C(F)F)c(C(=O)N(C2CC2)C2CCC3CCCCC3C2)c1F (mixture of isomers) [Example 38] | 100% | 100% | 96% | 100% |  |  |  | Efficacy [7]: 93%; Efficacy [3]: 95%; Efficacy [4]: 100%
3 | Cn1nc(C(F)F)c(C(=O)N(CC2CCCC3CCCC32)C2CC2)c1F (mixture of isomers) [Example 60] |  |  |  |  |  |  |  | Efficacy [6, 12]: 98%; Efficacy [8]: 100%
4 | Cn1cc(C(=O)N(CC2CCCC3CCCC32)C2CC2)c(C(F)F)n1 (mixture of isomers) [Example 61] |  |  |  |  |  |  |  | Efficacy [6, 12]: 100%; Efficacy [8]: 92%
5 | Cn1cc(C(=O)NC2CCC3CCCC32)c(C(F)F)n1 (stereo not shown) [Example 1] | 94% | 95% | 80% |  | 2.51 |  |  | 
6 | CN(C(=O)c1c(C(F)F)nn(C)c1F)C1CCC2CCCCC21 (stereo not shown) [Example 8] |  |  |  |  |  | 3.35 |  | Efficacy [6, 12]: 98%; Efficacy [8]: 100%
7 | CN(C(=O)c1cn(C)nc1C(F)F)C1CCC2CCCCC21 (stereo not shown) [Example 9] |  |  |  |  |  | 2.88 |  | Efficacy [6, 12]: 75%; Efficacy [8]: 100%
8 | Cn1cc(C(=O)N(C2CC2)C2CC3CCCCC3C2)c(C(F)F)n1 (stereo not shown) [Example 13] |  | 91% | 90% | 97% | 3.61 |  | 100% | Efficacy [7]: 80%
9 | Cn1cc(C(=O)NC2CC3CCC2C3)c(C(F)F)n1 (stereo not shown) [Example 46] |  | 85% | 75% |  | 2.14 |  | 88% | 
10 | Cn1nc(C(F)F)c(C(=O)NC2CC3CCC2C3)c1Cl (stereo not shown) [Example 47] |  | 83% | 83% | 88% | 2.64 |  | 97% | 
11 | Cn1nc(C(F)F)c(C(=O)NC2CC3CCC2C3)c1F (stereo not shown) [Example 48] | 75% | 87% | 83% | 88% | 2.46 |  | 83% | 
12 | CC1C(NC(=O)c2c(C(F)F)nn(C)c2Cl)CC2CC1C2(C)C (stereo not shown) [Example 51] |  |  |  |  |  | 3.79 | 95% | 
13 | CC1C(NC(=O)c2cn(C)nc2C(F)F)CC2CC1C2(C)C (stereo not shown) [Example 52] |  |  |  |  |  | 3.19 | 80% | 
14 | CC1C(NC(=O)c2c(C(F)F)nn(C)c2Cl)CC2CC1C2(C)C (stereo not shown) [Example 53] |  |  | 83% | 75% | 3.79 |  | 99% | 
15 | CC1C(NC(=O)c2cn(C)nc2C(F)F)CC2CC1C2(C)C (stereo not shown) [Example 54] |  |  |  |  |  | 3.19 | 85% | 
16 | Cn1nc(C(F)F)c(C(=O)NC23CC4CC(CC(C4)C2)C3)c1F [Example 56] |  |  | 83% |  |  | 3.57 | 100% | 
17 | Cn1nc(C(F)F)c(C(=O)NC23CC4CC(CC(C4)C2)C3)c1Cl [Example 57] |  |  | 75% |  |  | 3.81 | 75% | 
18 | Cn1cc(C(=O)N(CC2CCC3CCCC32)C2CC2)c(C(F)F)n1 (stereo not shown) [Example 59] | 89% | 75% |  | 100% | 3.50 |  | 100% | Efficacy [7]: 100%
19 | Cn1cc(C(=O)N(CC2CCC3CCCC3C2)C2CC2)c(C(F)F)n1 (stereo not shown) [Example 63] | 81% |  | 97% | 79% | 3.92 |  | 85% | Efficacy [7]: 100%
20 | Cn1nc(C(F)F)c(C(=O)N(CC2CC3C=CC2C3)C2CC2)c1F (stereo not shown) [Example 73] |  |  |  | 100% |  | 3.23 | 93% | 
21 | CON(C(=O)c1c(C(F)F)nn(C)c1F)C(C)C1CC2CCC1C2 (stereo not shown) [Example 99] | 95% |  |  | 100% | 3.67 |  | 100% | Efficacy [7]: 100%
22 | CON(C(=O)c1cn(C)nc1C(F)F)C(C)C1CC2CCC1C2 (stereo not shown) [Example 100] | 90% | 100% |  | 100% | 3.42 |  | 100% | Efficacy [7]: 100%

From patent publication US9725414B2, “Fungicidal N-bicycloalkyl and N-tricycloalkyl pyrazole-4-(thio)carboxamide derivatives” (priority 2011, dated 2017)
